Values of other authors, collected in article PMC4340357 (Journal of Chemical Information and Modeling, 2015).

Target: C. perfringens neuraminidase
Conditions: read-out: IC50 against C. perfringens neuraminidase

For `CC(C)=CCc1c(O)c(CC=C(C)C)c2oc3c(O)ccc(O)c3c(=O)c2c1O` [Gartanin], the IC50 is given as 2900 ± 300 nM.
